This is an account of results in US12257243B2, “5-hydroxy-7-oxabicyclo[2.2.1]heptane-2-carboxamide derivatives for inducing chondrogenesis for treating joint damage” (NOVARTIS AG, priority 2018, dated 2025).

Where two headings read alike, the source gives them in different places.

The term IC50 denotes the concentration at which inhibition is half-maximal.

The subject of this assay is ALP in normal human articular chondrocytes (NHACs). Nature of the assay: Alkaline Phosphatase (ALP) activity assay (staining and quantitation) in NHACs, prevention of chondrocyte hypertrophy. Type of assay: cell-based. As to conditions: human IL-1 beta 10 ng/mL, 12 days; for IC50: Fast Blue RR staining, high content imaging, read-out: ALP in NHAC IC50; for Emax / ALP in NHAC (% Efficacy): value in parentheses; for Emax: read-out: ALP in NHAC (% Efficacy). An outline of the steps: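 Primary human articular chondrocytes plated at 7,500 cells/well in DMEM with 10% FBS alongside test compound, incubated 5 h at 37 °C, then given IL-1β (10 ng/mL final) for 12 days. Fixed cells stained for ALP with Fast Blue RR/naphthol AS-MX, Hoechst counterstain. Read by fluorescence imaging (561 nm) and/or high-content cell scoring.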

For `Cc1ccc(C(F)(F)F)cc1NC(=O)[C@@H]1[C@@H](c2cn(C)nc2C(F)(F)F)[C@H]2O[C@@H]1C[C@@H]2O` (racemic) [Example 54, rac-(1R,2R,3S,4R,5S)-5-hydroxy-3-(1-methyl-3-(trifluoromethyl)-1H-pyrazol-4-yl)-N-(2-methyl-5-(trifluoromethyl)phenyl)-7-oxabicyclo[2.2.1]heptane-2-carboxamide], for the setting “Chondrocyte, 288 h”, the IC50 was 4.1 µM and the Emax came out at 52%.
For the compound `Cn1nc(C(F)(F)F)cc1[C@H]1[C@H]2O[C@H](C[C@@H]2O)[C@@H]1C(=O)Nc1cccc(C(F)(F)F)c1` (racemic) [Example 61, rac-(1R,2R,3S,4R,5S)-5-hydroxy-3-(1-methyl-3-(trifluoromethyl)-1H-pyrazol-5-yl)-N-(3-(trifluoromethyl)phenyl)-7-oxabicyclo[2.2.1]heptane-2-carboxamide], under “Chondrocyte, 288 h”, the IC50 came out at 21 µM and the Emax came out at 46%.
For `Cc1c(NC(=O)[C@@H]2[C@@H](c3cccc(C(F)(F)F)c3)[C@H]3O[C@@H]2C[C@@H]3O)cccc1C(F)(F)F` (racemic) [Example 11, rac-(1R,2R,3S,4R,5S)-5-hydroxy-N-(2-methyl-3-(trifluoromethyl)phenyl)-3-(3-(trifluoromethyl)phenyl)-7-oxabicyclo[2.2.1]heptane-2-carboxamide], in that order: over 30 µM and 33%.
As to `Cn1cc([C@H]2[C@H]3O[C@H](C[C@@H]3O)[C@@H]2C(=O)Nc2cc(C(F)(F)F)ccc2F)c(C(F)(F)F)n1` (racemic) [Example 52, rac-(1R,2R,3S,4R,5S)—N-(2-fluoro-5-(trifluoromethyl)phenyl)-5-hydroxy-3-(1-methyl-3-(trifluoromethyl)-1H-pyrazol-4-yl)-7-oxabicyclo[2.2.1]heptane-2-carboxamide], for the setting “Chondrocyte, 288 h”, the IC50 amounted to 4.2 µM and the Emax amounted to 73%.
For `O=C(Nc1ccc(C(F)(F)F)cc1)[C@@H]1[C@@H](c2ccnc(C(F)(F)F)c2)[C@H]2O[C@@H]1C[C@@H]2O` (racemic) [Example 66, rac-(1R,2R,3S,4R,5S)-5-hydroxy-N-(4-(trifluoromethyl)phenyl)-3-(2-(trifluoromethyl)pyridin-4-yl)-7-oxabicyclo[2.2.1]heptane-2-carboxamide], in that order: 15 µM and 66%.
The corresponding values for `Cn1nc(C(F)(F)F)cc1[C@H]1[C@H]2O[C@H](C[C@@H]2O)[C@@H]1C(=O)Nc1ccc(C(F)(F)F)c(Cl)c1` (racemic) [Example 73, rac-(1R,2R,3S,4R,5)-N-(3-chloro-4-trifluoromethyl)phenyl)-5-hydroxy-3-(1-methyl-3-(trifluoromethyl)-1H-pyrazol-5-yl)-7-oxabicyclo[2.2.1]heptane-2-carboxamide] are 7.1 µM and 105%.
As for `O=C(Nc1cccc(C(F)(F)F)c1)[C@@H]1[C@@H](c2cnc(C(F)(F)F)nc2)[C@H]2O[C@@H]1C[C@@H]2O` (racemic) [Example 83, rac-(1R,2R,3S,4R,5S)-5-hydroxy-N-(3-(trifluoromethyl)phenyl)-3-(2-(trifluoromethyl)pyrimidin-5-yl)-7-oxabicyclo[2.2.1]heptane-2-carboxamide], for the setting “Chondrocyte, 288 h”, the IC50 was 24 µM and the Emax was determined as 43%.
The corresponding values for `O=C(Nc1cc(C(F)(F)F)cc(Cl)n1)[C@@H]1[C@@H](c2cccc(C(F)(F)F)c2)[C@H]2O[C@@H]1C[C@@H]2O` (racemic) [Example 5, rac-(1R,2R,3S,4R,5S)—N-(6-chloro-4-(trifluoromethyl)pyridin-2-yl)-5-hydroxy-3-(3-(trifluoromethyl)phenyl)-7-oxabicyclo[2.2.1]heptane-2-carboxamide] are 27 µM and 82%.
For `Cn1cc([C@H]2[C@H]3O[C@H](C[C@@H]3O)[C@@H]2C(=O)Nc2cc(Cl)cc(C(F)(F)F)c2)c(C(F)(F)F)n1` (racemic) [Example 34, rac-(1R,2R,3S,4R,5)-N-(3-chloro-5-(trifluoromethyl)phenyl)-5-hydroxy-3-(1-methyl-3-(trifluoromethyl)-1H-pyrazol-4-yl)-7-oxabicyclo[2.2.1]heptane-2-carboxamide], for the setting “Chondrocyte, 288 h”, the IC50 was determined as 6.5 µM and the Emax turned out to be 101%.
In the case of `O=C(Nc1ccc(C(F)(F)F)c(F)c1)[C@@H]1[C@@H](c2cccc(C(F)(F)F)c2)[C@H]2O[C@@H]1C[C@@H]2O` (racemic) [Example 3, rac-(1R,2R,3S,4R,5S)—N-(3-fluoro-4-(trifluoromethyl)phenyl)-5-hydroxy-3-(3-(trifluoromethyl)phenyl)-7-oxabicyclo[2.2.1]heptane-2-carboxamide], under “Chondrocyte, 288 h”, the half-inhibitory concentration (IC50) amounted to 12 µM and the Emax came to 77%.
The corresponding values for `Cn1cc([C@H]2[C@H]3O[C@H](C[C@@H]3O)[C@@H]2C(=O)Nc2ccc(F)c(C(F)(F)F)c2)c(C(F)(F)F)n1` (racemic) [Example 43] are 7.9 µM and 59%.
Turning to `O=C(Nc1cccc(C(F)(F)F)c1)[C@@H]1[C@@H](c2cccc(C(F)(F)F)c2)[C@H]2O[C@@H]1C[C@@H]2O` (racemic) [Example 10, rac-(1R,2R,3S,4R,5S)-5-hydroxy-N,3-bis(3-(trifluoromethylphenyl)-7-oxabicyclo[2.2.1]heptane-2-carboxamide], under “Chondrocyte, 288 h”, the IC50 was 12 µM and the Emax turned out to be 108%.
Take `N#Cc1ccc(NC(=O)[C@@H]2[C@@H](c3cccc(C(F)(F)F)c3)[C@H]3O[C@@H]2C[C@@H]3O)cc1C(F)(F)F` (racemic) [Example 46, rac-(1R,2R,3S,4R,5S)—N-(4-cyano-3-trifluoromethyl)phenyl)-5-hydroxy-3-(3-(trifluoromethyl)phenyl)-7-oxabicyclo[2.2.1]heptane-2-carboxamide]: where the note is “Chondrocyte, 288 h”, the IC50 is 14 µM and the Emax was determined as 50%.
Turning to `O=C(Nc1cc(F)cc(C(F)(F)F)c1)[C@@H]1[C@@H](c2cccc(C(F)(F)F)c2)[C@H]2O[C@@H]1C[C@@H]2O` (racemic) [Example 17, rac-(1R,2R,3S,4R,5S)—N-(3-fluoro-5-(trifluoromethyl)phenyl)-5-hydroxy-3-(3-(trifluoromethyl)phenyl)-7-oxabicyclo[2.2.1]heptane-2-carboxamide], for the setting “Chondrocyte, 288 h”, the IC50 is 13 µM and the Emax came out at 105%.
For `COc1ccc(C(F)(F)F)cc1NC(=O)[C@@H]1[C@@H](c2cccc(C(F)(F)F)c2)[C@H]2O[C@@H]1C[C@@H]2O` (racemic) [Example 22, rac-(1R,2R,3S,4R,5S)-5-hydroxy-N-(2-methoxy-5-(trifluoromethyl)phenyl-3-(3-(trifluoromethyl)phenyl)-7-oxabicyclo[2.2.1]heptane-2-carboxamide], in that order: 27 µM and 75%.
`Cn1cc([C@H]2[C@H]3O[C@H](C[C@@H]3O)[C@@H]2C(=O)Nc2cc(C(F)(F)F)c(Cl)cn2)c(C(F)(F)F)n1` (single isomer, unassigned) [Example 36a, (1R 2R,3S,4R,5S)—N-(5-chloro-4-(trifluoromethyl)pyridin-2-yl)-5-hydroxy-3-(1-methyl-3-(trifluoromethyl)-1H-pyrazol-4-yl)-7-oxabicyclo[2.2.1]heptane-2-carboxamide or (1S,2S,3R,4S,5R)—N-(5-chloro-4-(trifluoromethyl)pyridin-2-yl)-5-hydroxy-3-(1-methyl-3-(trifluoromethyl)-1H-pyrazol-4-yl)-7-oxabicyclo[2.2.1]heptane-2-carboxamide]: the IC50 was 9.4 µM and the “ALP in NHAC (% Efficacy)” value was 95%.
Take `COc1cc([C@@H]2[C@@H]3O[C@@H](C[C@H]3O)[C@H]2C(=O)Nc2cc(C(F)(F)F)ccc2C#N)ccn1` (single isomer, unassigned) [Example 78b, (1R,2R,3S,4R,5)-N-(2-cyano-5-(trifluoromethyl)phenyl)-5-hydroxy-3-(2-methoxypyridin-4-yl)-7-oxabicyclo[2.2.1]heptane-2-carboxamide or (1S,2S,3R,4S,5R)—N-(2-cyano-5-(trifluoromethyl)phenyl)-5-hydroxy-3-(2-methoxypyridin-4-yl)-7-oxabicyclo[2.2.1]heptane-2-carboxamide]: the IC50 was 1.4 µM and the “ALP in NHAC (% Efficacy)” value was 88%.
On to `CC(C)n1cc([C@H]2[C@H]3O[C@H](C[C@@H]3O)[C@@H]2C(=O)Nc2cc(C(F)(F)F)ccc2C#N)c(C(F)(F)F)n1` (racemic) [Example 84, rac-(1R,2R,3S,4R,5S)—N-(2-cyano-5-(trifluoromethyl)phenyl)-5-hydroxy-3-(1-isopropyl-3-(trifluoromethyl)-1H-pyrazol-4-yl)-7-oxabicyclo[2.2.1]heptane-2-carboxamide], for which, where the note is “Chondrocyte, 288 h”, the IC50 was found to be 0.29 µM and the Emax turned out to be 86%.
For `COc1ccc(C(F)(F)F)cc1NC(=O)[C@H]1[C@H](c2cn(C)nc2C(F)(F)F)[C@@H]2O[C@H]1C[C@H]2O` (single isomer, unassigned) [Example 33b, (1R,2R,3S,4R,5S)-5-hydroxy-N-(2-methoxy-5-trifluoromethyl)phenyl)-3-(1-methyl-3-(trifluoromethyl)-1H-pyrazol-4-L)-7-oxabicyclo[2.2.1]heptane-2-carboxamide or (1S,2S,3R,4S,5R)-5-hydroxy-N-(2-methoxy-5-(trifluoromethyl)phenyl)-3-(1-methyl-3-(trifluoromethyl)-1H-pyrazol-4-L)-7-oxabicyclo[2.2.1]heptane-2-carboxamide], the half-inhibitory concentration (IC50) came to 3.1 µM and the “ALP in NHAC (% Efficacy)” value is 99%.
For the compound `N#Cc1cc(NC(=O)[C@@H]2[C@@H](c3cccc(C(F)(F)F)c3)[C@H]3O[C@@H]2C[C@@H]3O)cc(C(F)(F)F)c1` (racemic) [Example 47, rac-(1R,2R,3S,4R,5S)—N-(3-cyano-5-(trifluoromethyl)phenyl)-5-hydroxy-3-(3-(trifluoromethyl)phenyl)-7-oxabicyclo[2.2.1]heptane-2-carboxamide], under “Chondrocyte, 288 h”, the IC50 worked out at 5.5 µM and the Emax is 87%.
